Assay [1] addresses T1, human B1R receptor (hB1R) (Homo sapiens, UniProt P46663).
T1 construct: host or cells: CHO K1 cells
T1 sequence (P46663 1-353): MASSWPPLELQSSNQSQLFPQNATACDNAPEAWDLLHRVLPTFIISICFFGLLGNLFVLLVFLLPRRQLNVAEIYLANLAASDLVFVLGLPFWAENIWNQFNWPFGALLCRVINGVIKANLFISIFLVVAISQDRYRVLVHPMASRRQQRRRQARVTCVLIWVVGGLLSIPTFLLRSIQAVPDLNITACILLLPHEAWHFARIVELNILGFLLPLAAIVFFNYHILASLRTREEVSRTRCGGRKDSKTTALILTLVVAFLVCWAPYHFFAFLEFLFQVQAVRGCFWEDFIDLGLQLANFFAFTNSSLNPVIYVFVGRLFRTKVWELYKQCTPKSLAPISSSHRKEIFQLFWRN
As to the kind of experiment: FLIPR Ca2+ assay (Fluo-4) on CHO K1 cells stably transfected with the human B1R gene. It counts as cell-based. The conditions noted are these: CHO-K1; test substance 10 μM; agonist Lys-Des-Arg9-bradykinin 0.5 nM; % inhibition compared to the maximum achievable inhibition. As to the method:
(§1) The agonistic or antagonistic action of compounds can be quantified on the bradykinin 1 receptor (B1R) of humans and rats with ectopically expressing cell lines (CHO K1 cells) and with the aid of a Ca^2+-sensitive dye (Fluo-4) in the fluorescent imaging plate reader (FLIPR). The figure in percent activation refers to the Ca^2+ signal after addition of Lys-Des-Arg^9-bradykinin (0.5 nM) and Des-Arg^9-bradykinin (100 nM). Antagonists result in a suppression of the Ca^2+ inflow after the addition of the agonist. Percent inhibition values are given in comparison to the maximum achievable inhibition. The compounds according to the invention act, for example, on the B1R which is implicated in various disease states. This means that the compounds of the invention are useful as pharmaceutically active substances in medicaments for the treatment and/or inhibition of such disease states.
(§2) The agonistic or antagonistic action of substances can be determined on the bradykinin 1 receptor (B1R) of humans and rats by means of the following assay. According to this assay the Ca^2+ inflow through the channel is quantified by means of a Ca^2+-sensitive dye (Fluo-4 type, Molecular Probes Europe BV, Leiden, Netherlands), in a Fluorescent Imaging Plate Reader (FLIPR, Molecular Devices, Sunnyvale, USA).
(§3) Chinese hamster ovary cells (CHO K1 cells) are used, which are stably transfected with the human B1R gene (hB1R cells, Euroscreen s.a., Gosselies, Belgium), or with the B1R gene of rats (rB1R cells, Axxam, Milan, Italy). For functional investigations these cells are plated out on black 96-well plates with a clear floor (BD Biosciences, Heidelberg, Germany) in a density of 20,000/25,000 cells/well. The cells are incubated overnight with 10 vol. % FBS (foetal bovine serum, Gibco Invitrogen GmbH, Karlsruhe, Germany) at 37° C. and 5% CO2 in a culture medium (hB1R cells: Nutrient Mixture Ham's F12, Gibco Invitrogen GmbH, Karlsruhe, Germany; rB1R cells: D-MEM/F12, Gibco Invitrogen GmbH, Karlsruhe, Germany). The following day the cells are charged for 60 minutes at 37° C. with 2.13 μM Fluo-4 (Molecular Probes Europe BV, Leiden, Netherlands) in HBSS buffer (Hank's buffered saline solution, Gibco Invitrogen GmbH, Karlsruhe, Germany) together with […] (Sigma-Aldrich, Taufkirchen, Germany) and 10 mM HEPES (Sigma-Aldrich, Taufkirchen, Germany).
(§4) The plates are then washed twice with HBSS buffer and HBSS buffer is added which additionally contains 0.1% BSA (bovine serum albumin; Sigma-Aldrich, Taufkirchen, Germany), 5.6 mM glucose and 0.05% gelatin (Merck KGaA, Darmstadt, Germany). After further incubation for 20 minutes at room temperature the plates are used for the Ca^2+ measurement in the FLIPR. The Ca^2+-dependent fluorescence is measured both before and after the addition of substances (λex=488 nm, λem=540 nm). The quantification is carried out by measuring the highest fluorescence intensity (FC, fluorescence counts) over time.
(§5) The FLIPR protocol consists of two substance additions. First, test substances (10 μM) are pipetted onto the cells and the Ca^2+ inflow is compared with the control (hB1R: Lys-Des-Arg9-bradykinin 0.5 nM; rB1R: Des-Arg9-bradykinin 100 nM). This gives the result in percent activation referred to the Ca^2+ signal after addition of Lys-Des-Arg9-bradykinin (0.5 nM), bzw. Des-Arg9-bradykinin (100 nM). After 10 minutes' incubation 0.5 nM Lys-Des-Arg9-bradykinin (hB1R) and 100 nM Des-Arg^9-bradykinin (rB1R) are applied and the inflow of Ca^2+ is likewise determined. Antagonists lead to a suppression of the Ca^2+ inflow. The percent inhibition compared to the maximum achievable inhibition is calculated. The compounds show a good activity on both human and rat receptors.
(§6) The agonistic and antagonistic action of the compounds according to the invention on the bradykinin 1 receptor (B1R) of humans and rats were determined as described above. Antagonists lead to a suppression of the Ca^2+ inflow. […]

In assay [2] the target is T2, B1R receptor of rats (rB1R) (Rattus norvegicus, UniProt P97583).
T2 construct: host or cells: CHO K1 cells
T2 sequence (P97583 1-337): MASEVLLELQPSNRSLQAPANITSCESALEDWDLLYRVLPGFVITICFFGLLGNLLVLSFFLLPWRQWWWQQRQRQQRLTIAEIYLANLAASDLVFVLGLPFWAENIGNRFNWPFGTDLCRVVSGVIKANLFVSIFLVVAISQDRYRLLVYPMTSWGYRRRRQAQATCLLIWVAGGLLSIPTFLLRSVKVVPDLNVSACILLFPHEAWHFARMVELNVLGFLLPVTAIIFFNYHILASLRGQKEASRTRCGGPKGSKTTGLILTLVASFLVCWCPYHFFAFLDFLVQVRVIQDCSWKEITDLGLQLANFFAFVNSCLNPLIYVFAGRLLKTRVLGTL
As to the kind of experiment: FLIPR Ca2+ assay (Fluo-4) on CHO K1 cells stably transfected with the B1R gene of rats. The format is cell-based. As to conditions: CHO-K1; test substance 10 μM; agonist Des-Arg9-bradykinin 100 nM; % inhibition compared to the maximum achievable inhibition. As to the method: as §1, §2, §3, §4, §5, §6

Here are results for 15 compounds from US8178535B2, “Substituted sulfonamide compounds having bradykinin 1 receptor activity and use thereof as medicaments” (Gruenenthal GmbH, priority 2008, dated 2012).

As usually defined, the inhibition is the drop in the measured response relative to a control, in per cent. As to `CN1CCN(CCCc2ccc3n2CCN(C(=O)CC2CCCCN2S(=O)(=O)c2cccc(C(F)(F)F)c2)C3)CC1` (stereo not drawn) [(15), 1-(6-(3-(4-methylpiperazin-1-yl)propyl)-3,4-dihydropyrrolo[1,2-a]pyrazin-2(1H)-yl)-2-(1-(3-(trifluoromethyl)phenylsulfonyl)piperidin-2-yl)ethanone], the inhibition at 10 µM in assay [1] was 46%; in assay [2] it was 100%.
For `CN1CCN(CCCc2ccc3n2CCN(C(=O)COCC2CCc4ccccc4N2S(=O)(=O)c2ccc(Cl)c(Cl)c2)C3)CC1` (stereo not drawn) [(16), 2-((1-(3,4-dichlorophenylsulfonyl)-1,2,3,4-tetrahydroquinolin-2-yl)methoxy)-1-(6-(3-(4-methylpiperazin-1-yl)propyl)-3,4-dihydropyrrolo[1,2-a]pyrazin-2(1H)-yl)ethanone] the same measures were 48% and 92%.
Taken in the same sequence, the figures for `O=C(CC1CCCCN1S(=O)(=O)c1cccc(C(F)(F)F)c1)N1CCn2c(CCCN3CCCC3)ccc2C1` (stereo not drawn) [(17), 1-(6-(3-(pyrrolidin-1-yl)propyl)-3,4-dihydropyrrolo[1,2-a]pyrazin-2(1H)-yl)-2-(1-(3-(trifluoromethyl)phenylsulfonyl)piperidin-2-yl)ethanone] were 50% and 75%.
Turning to `Cc1cc(S(=O)(=O)N2CCCCC2CCC(=O)N2CCn3c(CCCN4CCCC4)ccc3C2)c(C)cc1Cl` (stereo not drawn) [(18), 3-(1-(4-chloro-2,5-dimethylphenylsulfonyl)piperidin-2-yl)-1-(6-(3-(pyrrolidin-1-yl)propyl)-3,4-dihydropyrrolo[1,2-a]pyrazin-2(1H)-yl)propan-1-one], the inhibition at 10 µM in assay [1] came to 90%; in assay [2], 99%.
Taken in the same sequence, the figures for `COc1cc(C)c(S(=O)(=O)N2CCCCC2COCC(=O)N2CCn3cccc3C2C(C)(C)C)c(C)c1` (stereo not drawn) [(19), 1-(1-tert-butyl-3,4-dihydropyrrolo[1,2-a]pyrazin-2(1H)-yl)-2-((1-(4-methoxy-2,6-dimethyl-phenylsulfonyl)piperidin-2-yl)methoxy)ethanone] were 102% and 96%.
For `COc1cc(C)c(S(=O)(=O)N2CCCCC2COCC(=O)N2CCn3cccc3C2C)c(C)c1` (stereo not drawn) [(20), 2-((1-(4-methoxy-2,6-dimethylphenylsulfonyl)piperidin-2-yl)methoxy)-1-(1-methyl-3,4-dihydropyrrolo[1,2-a]pyrazin-2(1H)-yl)ethanone], the inhibition at 10 µM in assay [1] was found to be 101%; in assay [2], 99%.
For `COc1cc(C)c(S(=O)(=O)N2CCCCC2COCC(=O)N2CCn3cccc3C2c2cccnc2)c(C)c1` (stereo not drawn) [(21), 2-((1-(4-methoxy-2,6-dimethylphenylsulfonyl)piperidin-2-yl)methoxy)-1-(1-(pyridin-3-yl)-3,4-dihydropyrrolo[1,2-a]pyrazin-2(1H)-yl)ethanone] the same measures were 100% and 98%.
Consider `COc1cc(C)c(S(=O)(=O)N2CCCCC2COCC(=O)N2CCn3cccc3C2c2ccc(Cl)nc2)c(C)c1` (stereo not drawn) [(22), 1-(1-(6-chloropyridin-3-yl)-3,4-dihydropyrrolo[1,2-a]pyrazin-2(1H)-yl)-2-((1-(4-methoxy-2,6-dimethylphenylsulfonyl)piperidin-2-yl)methoxy)ethanone], for which the inhibition at 10 µM amounted to 102% in assay [1] and 99% in assay [2].
Taken in the same sequence, the figures for `COc1cc(C)c(S(=O)(=O)N2CCCCC2COCC(=O)N2CCn3ccnc3C2)c(C)c1` (stereo not drawn) [(23), 1-(5,6-dihydroimidazo[1,2-a]pyrazin-7(8H)-yl)-2-((1-(4-methoxy-2,6-dimethyl-phenylsulfonyl)piperidin-2-yl)methoxy)ethanone] were 70% and 99%.
As for `COc1ccc(C2c3cccn3CCN2C(=O)COCC2CCCCN2S(=O)(=O)c2c(C)cc(OC)cc2C)cc1` (stereo not drawn) [(24), 2-((1-(4-methoxy-2,6-dimethylphenylsulfonyl)piperidin-2-yl)methoxy)-1-(1-(4-methoxyphenyl)-3,4-dihydropyrrolo[1,2-a]pyrazin-2(1H)-yl)ethanone], the inhibition at 10 µM worked out at 101% in assay [1] and 98% in assay [2].
Taken in the same sequence, the figures for `COc1cc(C)c(S(=O)(=O)N2CCCCC2COCC(=O)N2CCn3cccc3C2c2ccccc2)c(C)c1` (stereo not drawn) [(25), 2-((1-(4-methoxy-2,6-dimethylphenylsulfonyl)piperidin-2-yl)methoxy)-1-(1-phenyl-3,4-dihydropyrrolo[1,2-a]pyrazin-2(1H)-yl)ethanone] were 99% and 97%.
For `COc1cc(C)c(S(=O)(=O)N2CCCCC2COCC(=O)N2CCn3cccc3C2c2ccc(F)c(F)c2)c(C)c1` (stereo not drawn) [(26), 1-(1-(3,4-difluorophenyl)-3,4-dihydropyrrolo[1,2-a]pyrazin-2(1H)-yl)-2-((1-(4-methoxy-2,6-dimethylphenylsulfonyl)piperidin-2-yl)methoxy)ethanone] the same measures were 86% and 98%.
`COc1cc(C)c(S(=O)(=O)N2CCCCC2COCC(=O)N2CCn3cccc3C2c2ccc(C)c(C)c2)c(C)c1` (stereo not drawn) [(27), 1-(1-(3,4-dimethylphenyl)-3,4-dihydropyrrolo[1,2-a]pyrazin-2(1H)-yl)-2-((1-(4-methoxy-2,6-dimethylphenylsulfonyl)piperidin-2-yl)methoxy)ethanone]: the inhibition at 10 µM in assay [1] was determined as 66%; in assay [2], 97%.
For the compound `COc1cc(C)c(S(=O)(=O)N2CCCCC2COCC(=O)N2CCn3cccc3C2c2cccc(F)c2)c(C)c1` (stereo not drawn) [(28), 1-(1-(3-fluorophenyl)-3,4-dihydropyrrolo[1,2-a]pyrazin-2(1H)-yl)-2-((1-(4-methoxy-2,6-dimethylphenylsulfonyl)piperidin-2-yl)methoxy)ethanone], the inhibition at 10 µM in assay [1] and in assay [2] was 98% each time.
On to `COc1cc(C)c(S(=O)(=O)N2CCCCC2COCC(=O)N2CCn3cccc3C2c2cccs2)c(C)c1` (stereo not drawn) [(29), 2-((1-(4-methoxy-2,6-dimethylphenylsulfonyl)piperidin-2-yl)methoxy)-1-(1-(thiophen-2-yl)-3,4-dihydropyrrolo[1,2-a]pyrazin-2(1H)-yl)ethanone], for which the inhibition at 10 µM in assay [1] is 102%; in assay [2], 98%.
